# Laboratory results from patent US10591478B2, “Methods for molecular classification of fatty liver by high-throughput protein post-translational modifications” (ROSEMAN UNIVERSITY OF HEALTH SCIENCES, priority 2015, dated 2020).
# Entries after “also recorded” stand apart in the source; their conditions may differ.
# Legend:
# HepG2 cells = assay: 1D Western blot of HepG2 total cell extracts with antibodies against O-GlcNAc; format: cell-based; settings: HepG2, 100 μM PUGNAc, 48 hours
# Description: HepG2 cells were maintained in DMEM media with 25 mM glucose and 10% fetal calf serum. HepG2 cells were treated for 48 hours with 100 μM PUGNAc (Cat. No. A7229, Sigma, St. Louis, Mo.). Total HepG2 cell extracts were collected and evaluated with 1D Western blots using antibodies against O-GlcNAc.
# HepG2 cells were first lysed with M-Per lysis buffer (Pierce, Rockford, Ill., USA) in the presence of protease and phosphatase inhibitors. For cIEF immunoassays, total cell lysates were prepared in Premix G2 pH 5-8 separation gradient containing pI standards (ProteinSimple).
# HepG2 total cell extracts were analyzed on 10% SDS-polyacrylamide gel. Secondary antibodies were purchased from LI-COR (Lincoln, Nebr., Cat. No. 92668070). Immunoblots were detected with the LI-COR's Odyssey CLx imaging system.
# FOXO1 = assay: cIEF immunoassay of FOXO1 pI distribution in HepG2 cells; format: cell-based; settings: 48 hours
# Description: A NanoPro 1000 cIEF system (Protein Simple, Santa Clara, Calif., USA) was employed for profiling protein PTM. Samples of 400 nl volume were separated by isoelectric focusing using the 96-capillary system, followed by immobilization of the proteins onto the inner capillary walls. Primary and secondary antibodies (Tables 2 and FIG. 6) were introduced into the capillaries, followed by chemiluminescence detection reagents. The incubation times were 110 and 55 min for primary and secondary antibodies, respectively. The separation time was 50 minutes at […]. All samples were loaded in triplicate into capillaries to evaluate the consistency of capillary-to-capillary measurement. Each experiment was performed in triplicate to ensure repeatability. A minimum of nine cIEF measurements were done for each protein per animal group. […]
# HepG2 cells were maintained in DMEM media with 25 mM glucose and 10% fetal calf serum. […] Total HepG2 cell extracts were collected and evaluated with 1D Western blots using antibodies against O-GlcNAc.
# HepG2 cells were transiently transfected with an expression vector that expressed FOXO1 with a Myc-DDK tag (Cat. No. RC200477, Origene, Rockville, Md.). […] HepG2 cells were treated for 48 hours with 500 μM glucosamine Total HepG2 cell extracts were collected and evaluated with 1D and 2D Western blots using antibodies against FLAG tag. […]
# [1] = test system: liver tissues (hepatic steatosis); assay: Assessment of hepatic steatosis with CARS microscopy and Oil Red O histology; format: in vivo, mouse; settings: C57BL/6J+F mice, fenofibrate diet (400 mg/kg per day) for 5 days
# Description: (§1) C57BL/6 J and UPase1-TG mice were fed a lean diet that provides 4.6 kcal/g (22% by calorific value from fat, 23% from protein, and 55% from carbohydrates; PicoLab Mouse Diet, Catalog No 5058, LabDiet, Brentwood, Mo., USA). C57BL/6 J+LD mice were fed a lean diet for 16 weeks. C57BL/6 J+F mice were fed a lean diet supplemented with fenofibrate (400 mg/kg per day) for 5 days. C57BL/6 J+HFD mice were fed a high-fat diet that provides 5.24 kcal/g (60% from fat, 20% from protein, and 20% from carbohydrates) for 16 weeks (Catalog No D12492, Research Diets Inc, New Brunswick, N.J., USA). C57BL/6 J mice served as a control for C57BL/6 J+LD, UPase1-TG, and C57BL/6 J+F mice. On the other hand, C57BL/6 J+LD mice served as a control for C57BL/6 J+HFD mice. All animal studies were performed in conformity with the Public Health Service Policy on Humane Care and Use of Laboratory Animals and with the approval of the Animal Care and Use Committees at Nevada Cancer Institute, Desert Research Institute, and Touro University Nevada.
# PFK1 = assay: cIEF immunoassay PTM profile of PFK1 in liver tissues; format: in vivo, mouse; settings: C57BL/6J+F liver vs control C57BL/6J
# Description: as §1
# (§2) Approximately 500 mg of frozen liver tissues was added to 300 μl of RIPA buffer (Cat. No. 8990, Life Technologies, Grand Island, N.Y. 14702) containing proteinase and phosphatase inhibitors and homogenized twice at 6 seconds duration. […]
# LCAT = assay: cIEF immunoassay PTM profile of LCAT in liver tissues; format: in vivo, mouse
# Description: as §1, §2
# HMGCS2 = assay: cIEF immunoassay PTM profile of HMGCS2 in liver tissues; format: in vivo, mouse; settings: C57BL/6J+F liver vs C57BL/6J
# Description: as §1, §2
# ChREBP = assay: cIEF immunoassay PTM profile of ChREBP in liver tissues; format: in vivo, mouse; settings: C57BL/6J+F liver vs control C57BL/6J
# Description: as §1, §2
# LCAD = assay: cIEF immunoassay PTM profile of LCAD in liver tissues; format: in vivo, mouse; settings: C57BL/6J+F liver vs control C57BL/6J
# Description: as §1, §2
# Akt = assay: cIEF immunoassay phosphorylation profile of Akt in liver tissues; format: in vivo, mouse; settings: C57BL/6J+F liver vs C57BL/6J
# Description: as §1, §2
# ERK1/2 = assay: cIEF immunoassay phosphorylation profile of ERK1/2 in liver tissues; format: in vivo, mouse; settings: C57BL/6J+F liver vs control C57BL/6J
# Description: as §1, §2
# FLAG-tagged FOXO1 = assay: 2D Western blot of FLAG-tagged FOXO1 in HepG2 cells; format: cell-based; settings: HepG2 transfected with FLAG-tagged FOXO1, 500 μM glucosamine, 48 hours
# Description: HepG2 cells were transiently transfected with an expression vector that expressed FOXO1 with a Myc-DDK tag (Cat. No. RC200477, Origene, Rockville, Md.). Transfection reagent was purchased from Life Technologies (Lipofectamine 2000, Cat. No. 11668-019, Grand Island, N.Y. 14702). HepG2 cells were treated for 48 hours with 500 μM glucosamine Total HepG2 cell extracts were collected and evaluated with 1D and 2D Western blots using antibodies against FLAG tag.
# 2D Western blots of HepG2 total protein extracts were performed by Kendrick Laboratories (Madison, Wis.). Total protein extracts was diluted with 100 ul of SDS Boiling Buffer and microdialyzed overnight using 6-8,000 MWCO membrane at 4° C. Samples were then lyophilized and redissolved to 3.33 mg/ml in diluted SDS boiling Buffer:Urea Sample Buffer before loading. A total of 500 μg of total protein extracts or 150 μl was loaded for isoeletric focusing. Carrier ampholine method of isoelectric focusing was carried out in a glass tube of inner diameter 3.3 mm using 2.0% pH 4-8 mix Servalytes (Serva, Heidelberg, Germany) for 20,000 volt-hrs. After equilibration for 10 minutes in 10% glycerol, 50 mM dithiothreitol, 2.3% SDS and 0.0625 M tris, pH 6.8, each tube gel was sealed to the top of a stacking gel that overlaid a 10% acrylamide slab gel. SDS slab gel electrophoresis was carried out for about 5 hours at 25 mA/gel. […]
smiles,measurement,setting,value
CC(=O)N[C@H]1/C(=N/OC(=O)Nc2ccccc2)O[C@H](CO)[C@@H](O)[C@@H]1O [PUGNAc],overall protein O-linked glycosylation profile of HepG2 total cell extract,HepG2 cells,increased
same,"new FOXO1 peak, pI","FOXO1; HepG2, 100 μM PUGNAc",8.25 pI
CC(C)OC(=O)C(C)(C)Oc1ccc(C(=O)c2ccc(Cl)cc2)cc1 [fenofibrate],Fatty liver classification,[1],severe microvesicular steatosis
same,"reduction of phosphorylated PFK-1 isoform, areas under the curve",PFK1,~10 folds
same,LCAT observed pI value,LCAT; C57BL/6J+F liver,5.8 pI
same,"glycosylated LCAT isoforms, folds lower",LCAT; C57BL/6J+F liver vs C57BL/6J,~10 folds
same,"PTM increase for HMGCS2, areas under the curve from pI 5.7 to 6.4",HMGCS2,2 folds
same,reduction of phosphorylated ChREBP isoforms,ChREBP,60%
same,"glycosylated LCAD isoform, folds higher, areas under the curve",LCAD,2 folds
same,"Akt phosphorylation level, lower compared to control",Akt,approximately 30%
same,"increase of ERK1/2 phosphorylated isoforms, areas under the curve",ERK1/2,~30%
N[C@H]1C(O)O[C@H](CO)[C@@H](O)[C@@H]1O (stereo partly shown) [glucosamine],"FOXO1 peaks in cIEF, pI","FOXO1; HepG2, 500 μM glucosamine",> 7.5 pI
same,FLAG-tagged FOXO1 pI on 2D Western blot,FLAG-tagged FOXO1,shift to FLAG-tagged FOXO1 toward basic pI values; also recorded: additional gel spot at a basic pI value
